“And” between values parts separate entries of the source, which are not always exact repeats. Identical values can stand only once. “Also recorded” adds a separate entry of the source. Like-named read-outs stand apart in the source and are kept apart here.
How the values were obtained:
human FXR [1] = target: T1, human FXR (Homo sapiens, UniProt Q96RI1); assay: FXR-bla reporter gene assay, antagonist mode (CDCA-induced transactivation); conditions: for FXR antagonist Efficacy: Table S3
[2] = test system: FXR-UAS-bla HEK293T cells; assay: Cell viability assay (CellTiter Glo) in the same well as FXR-bla; conditions: for Cytotoxicity IC50: Table S1, primary screening; for Cell viability IC50: Table 1, mean ± SD of 3 experiments
human FXR [3] = target: T1, human FXR; assay: FXR-bla reporter gene assay, agonist mode (qHTS); conditions: for FXR-bla, agonist Efficacy: Table 1, activation as percent of positive control (CDCA 100%), mean ± SD of 3; for FXR agonist activity: FXR-bla assay; for FXR-bla, agonist EC50: Table 1, confirmed compounds, mean ± SD of 3 experiments
FXR-LBD [4] = target: T2, FXR-LBD (Homo sapiens, UniProt Q96RI1); assay: FXR TR-FRET coactivator recruitment assay, antagonist mode (50 μM CDCA); assay type: biochemical
T2 construct: The glutathione S-transferase (GST)-tagged FXR-LBD protein; purchased Life Technologies
T2 sequence (Q96RI1 262-486 limits assumed): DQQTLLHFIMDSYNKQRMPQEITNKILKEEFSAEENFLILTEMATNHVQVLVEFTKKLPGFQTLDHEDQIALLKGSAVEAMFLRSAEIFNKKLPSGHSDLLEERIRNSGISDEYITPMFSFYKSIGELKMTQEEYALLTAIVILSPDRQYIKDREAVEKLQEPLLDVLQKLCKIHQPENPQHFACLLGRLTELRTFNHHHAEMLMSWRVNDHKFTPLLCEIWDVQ

FXR-LBD [5] = target: T2, FXR-LBD; assay: FXR TR-FRET coactivator recruitment assay, agonist mode; assay type: biochemical; conditions: Table 1; coactivator SRC2-2 recruitment
[6] = test system: FXR-UAS-bla HEK293T cells
vitamin D receptor (VDR) = vitamin D receptor (VDR) (Homo sapiens, UniProt P11473); assay: VDR-bla reporter gene assay (agonist and antagonist modes)
[7] = Table 1, in the presence of 50 μM CDCA
[8] = IC50, FXR-bla antagonist mode, primary screening, CDCA-induced
[9] = Table S1, primary screening, 50 µM CDCA

T1 sequence (Q96RI1 with tags, fused parts or gaps limits assumed): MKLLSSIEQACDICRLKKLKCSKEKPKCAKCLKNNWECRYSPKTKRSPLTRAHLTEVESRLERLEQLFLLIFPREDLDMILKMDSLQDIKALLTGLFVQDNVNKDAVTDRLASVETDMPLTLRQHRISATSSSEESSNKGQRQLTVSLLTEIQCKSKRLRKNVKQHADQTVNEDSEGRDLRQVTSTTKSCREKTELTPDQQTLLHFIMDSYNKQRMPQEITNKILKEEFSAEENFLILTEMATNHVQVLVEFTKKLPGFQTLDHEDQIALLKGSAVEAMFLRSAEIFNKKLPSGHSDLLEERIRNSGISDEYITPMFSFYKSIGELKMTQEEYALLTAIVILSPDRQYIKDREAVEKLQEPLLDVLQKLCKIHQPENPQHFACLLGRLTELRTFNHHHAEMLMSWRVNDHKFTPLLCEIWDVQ
Sequence of vitamin D receptor (VDR) (P11473 with tags, fused parts or gaps limits assumed): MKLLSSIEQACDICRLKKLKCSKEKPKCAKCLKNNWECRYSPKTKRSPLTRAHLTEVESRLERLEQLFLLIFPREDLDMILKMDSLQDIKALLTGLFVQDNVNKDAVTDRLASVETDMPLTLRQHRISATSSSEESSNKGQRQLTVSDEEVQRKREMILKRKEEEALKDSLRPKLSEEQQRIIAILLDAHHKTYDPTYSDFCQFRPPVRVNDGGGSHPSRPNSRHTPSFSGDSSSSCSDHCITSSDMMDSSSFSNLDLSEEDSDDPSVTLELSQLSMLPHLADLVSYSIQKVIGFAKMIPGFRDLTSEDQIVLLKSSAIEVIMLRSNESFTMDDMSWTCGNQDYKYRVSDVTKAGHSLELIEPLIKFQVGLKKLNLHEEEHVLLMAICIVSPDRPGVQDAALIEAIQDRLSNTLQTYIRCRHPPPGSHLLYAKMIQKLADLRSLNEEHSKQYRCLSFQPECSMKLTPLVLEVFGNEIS

## Cc1c(COC(=O)[C@@H]2[C@H](/C=C(\Cl)C(F)(F)F)C2(C)C)cccc1-c1ccccc1 (racemic) [Bifenthrin]
Human FXR [1]
  FXR antagonist mode Efficacy: 50 ± 16
Human FXR [1]; FXR antagonist mode IC50
  IC50: 11.3 ± 4.58 µM
Human FXR [1]; FXR-bla assay, CDCA-induced
  FXR antagonist activity: highly selective FXR antagonists
[2]
  Cytotoxicity IC50: Inactive
Human FXR [3]; Table S1, primary screening
  FXR agonist mode EC50: Inactive

## Cc1c(F)c(F)c(COC(=O)[C@@H]2[C@H](/C=C(\Cl)C(F)(F)F)C2(C)C)c(F)c1F (racemic) [Tefluthrin]
Human FXR [1]
  FXR antagonist mode Efficacy: 46 ± 7
Human FXR [1]; FXR antagonist mode IC50
  IC50: 12.4 ± 2.01 µM
[2]
  Cytotoxicity IC50: Inactive
Human FXR [3]; Table S1, primary screening
  FXR agonist mode EC50: Inactive

## Nc1c2ccccc2nc2ccccc12 [9-Aminoacridine]
Human FXR [1]; Table 1, 50 μM CDCA, mean ± SD of 3 experiments
  FXR-bla, antagonist IC50: Inactive
[2]
  Cell viability IC50: Inactive
FXR-LBD [4]; [7]
  FXR TR-FRET, antagonist IC50: Inactive
FXR-LBD [5]
  FXR TR-FRET, agonist EC50: unable to induce coactivator recruitment; also recorded: Inactive
Human FXR [3]
  EC50: 11.2 ± 2.09 µM
  FXR-bla, agonist Efficacy: 152% and 152 ± 22%

## CC1=C(/C=C/C(C)=C/C=C/C(C)=C\C(=O)O)C(C)(C)CCC1 [13-cis Retinoic acid]
[6]
  Cytotoxicity Efficacy: 52 ± 44

## C/C=C1/C(=O)C[C@H]2[C@@H]3CCC4=CC(=O)CC[C@]4(C)[C@H]3CC[C@]12C [(E)-Guggulsterone]
[6]
  Cytotoxicity IC50: Inactive

## C/C=C1\C(=O)C[C@H]2[C@@H]3CCC4=CC(=O)CC[C@]4(C)[C@H]3CC[C@]12C [(Z)-Guggulsterone]
[6]
  Cytotoxicity IC50: Inactive

## CCC[S+]([O-])c1ccc2[nH]c(NC(=O)OC)nc2c1 (stereo not drawn) [Albendazole oxide]
Human FXR [1]
  FXR antagonist mode Efficacy: 35 ± 16%
Human FXR [1]; FXR antagonist mode IC50
  IC50: 27.9 ± 5.02 µM
[2]
  Cytotoxicity IC50: Inactive
Human FXR [3]; Table S1, primary screening
  FXR agonist mode EC50: Inactive

## COC(=O)C1=C(C)NC(C)=C(C(=O)OC2CCCN(Cc3ccccc3)C2)C1c1cccc([N+](=O)[O-])c1 (stereo not drawn) [Benidipine]
Human FXR [1]; [8]
  IC50: 24.8 µM
Human FXR [1]; [9]
  FXR antagonist mode Efficacy: 84 ± 17%
Human FXR [1]; 50 µM CDCA
  FXR antagonist Efficacy: 84 ± 17%
[2]
  Cytotoxicity IC50: Inactive
Human FXR [3]
  FXR agonist activity: weak FXR agonist activity
Human FXR [3]; Table S1, primary screening
  FXR agonist mode EC50: Inactive

## CCCCNC(=O)n1c(NC(=O)OC)nc2ccccc21 [Benomyl]
Human FXR [1]
  FXR antagonist mode Efficacy: 21 ± 18%
Human FXR [1]; [8]
  IC50: 18.3 µM
[2]
  Cytotoxicity IC50: Inactive
Human FXR [3]; Table S1, primary screening
  FXR agonist mode EC50: Inactive

## COCCOC(=O)C1=C(C)NC(C)=C(C(=O)OC/C=C/c2ccccc2)C1c1cccc([N+](=O)[O-])c1 (stereo not drawn) [Cilnidipine]
Human FXR [1]
  IC50: 31.1 ± 2.1 µM
Human FXR [1]; [9]
  FXR antagonist mode Efficacy: 64 ± 12%
Human FXR [1]; 50 µM CDCA
  FXR antagonist Efficacy: 64 ± 12%
[2]
  Cytotoxicity IC50: Inactive
Human FXR [3]
  EC50: 8.08 ± 3.4 µM
  FXR agonist activity: FXR agonists
Human FXR [3]; Table S1, primary screening, CDCA 100%
  FXR agonist mode Efficacy: 64 ± 7%
Human FXR [3]; Table S3
  FXR agonist Efficacy: 64 ± 7%

## CC1=C2C[C@H]3[C@@H](CC=C4C[C@@H](O)CC[C@@]43C)[C@@H]2CC[C@]12O[C@@H]1C[C@H](C)CN[C@H]1[C@H]2C [Cyclopamine]
Human FXR [1]
  FXR-bla, antagonist IC50: Inactive
[2]; Homo sapiens, HEK-293T, read-out: Cell viability IC50
  IC50: 17.6 µM
FXR-LBD [4]; [7]
  FXR TR-FRET, antagonist IC50: Inactive
FXR-LBD [5]
  FXR TR-FRET, agonist EC50: unable to induce coactivator recruitment; also recorded: Inactive
Human FXR [3]
  EC50: 10.6 ± 3.13 µM
  FXR-bla, agonist Efficacy: 94% and 94 ± 9%

## CC1(C)C(/C=C(\Cl)C(F)(F)F)C1C(=O)OC(C#N)c1cccc(Oc2ccccc2)c1 (stereo not drawn) [Cyhalothrin]
Human FXR [1]
  FXR antagonist mode Efficacy: 50 ± 15
Human FXR [1]; FXR antagonist mode IC50
  IC50: 21.3 ± 13.1 µM
Vitamin D receptor (VDR)
  VDR activity: antagonist activity
[2]
  Cytotoxicity IC50: Inactive
Human FXR [3]; Table S1, primary screening
  FXR agonist mode EC50: Inactive

## O=C1c2ccccc2C(=O)C1C(=O)C(c1ccccc1)c1ccccc1 [Diphacinone]
Human FXR [1]; FXR-bla, antagonist IC50
  IC50: 15 µM
[2]
  Cell viability IC50: Inactive
FXR-LBD [4]
  FXR TR-FRET, antagonist IC50: Inactive
FXR-LBD [5]
  FXR TR-FRET, agonist EC50: Inactive
Human FXR [3]
  FXR-bla, agonist EC50: Inactive

## OCCN(CCO)c1nc(N2CCCCC2)c2nc(N(CCO)CCO)nc(N3CCCCC3)c2n1 [Dipyridamole]
Human FXR [1]
  IC50: 3.5 ± 0.4 µM
Human FXR [1]; Table 1, inhibition as percent of positive control (guggulsterone), 50 μM CDCA
  FXR-bla, antagonist Efficacy: 81 ± 5%
Human FXR [1]; 50 µM CDCA
  FXR antagonist Efficacy: 53 ± 11%
[2]
  Cell viability IC50: Inactive
FXR-LBD [4]; [7]
  FXR TR-FRET, antagonist IC50: Inactive
FXR-LBD [5]
  FXR TR-FRET, agonist EC50: Inactive
Human FXR [3]
  FXR-bla, agonist EC50: Inactive
